According to US8455240B2, “Use of thermophilic sulphate-reducing archaea for the implementation of a process for the degradation of hydrocarbons” (Institut de Recherche pour le Development (I.R.D.), priority 2005, dated 2013):
Several values for one entry are separate records, joined by “and”; a condition that tells them apart may be missing. Equal entries are not always repeated. Marks after values point to notes of the source that are not given here.

How the values were obtained:
[1] = system: Archaeoglobus fulgidus; assay: Screening for hydrocarbon degradation, A. fulgidus (sulphide production, Cord-Ruwish); type: cell-based
Protocol: (§1) Experimentally, 4 ml of Cord-Ruwish reagent comprising 50 mmol/l of HCl and 5 mmol/l of CuSO4 are added to 0.1 ml of sample. Copper sulphate (CuSO4) by reacting with hydrogen sulphide (H2S), forms a copper sulphide precipitate (CuS) after the reaction: CuSO4+H2S→CuS+H2SO4
(§2) According to this method, the CuS is assayed by spectrophotometry at 480 nm. The readings are carried out against a blank constituted by 4 ml of Cord-Ruwish reagent.
(§3) The study of the hydrocarbon degradation abilities is an experiment which requires a particularly long incubation. Thus, it was carried out in Bellco tubes sealed with thick rubber stoppers.
(§4) For these experiments, tubes containing 10 ml of culture medium without substrate, are 10% inoculated, then the hydrocarbon is introduced by injection through the stopper.
(§5) The hydrocarbons chosen are model molecules belonging to the different classes of hydrocarbons, namely: • hexadecane (CH3(CH2)14CH3, C16), a saturated linear aliphatic hydrocarbon; • hexadecene (CH3(CH2)13CHCH2, C16:1), an unsaturated linear aliphatic hydrocarbon of biogenic origin; • dibenzothiophene (DBT, C12H8S), a sulphur-containing aromatic hydrocarbon.
(§6) The aliphatic hydrocarbons (C16; C16:1) are added to the corresponding tubes, at a rate of 0.04 ml/10 ml of culture medium. The aromatic hydrocarbons (DBT) are solubilized in 2,2,4,4,6,8,8-heptamethylnonane (HMN, C16H34) at a rate of 20 mg/ml of HMN, and 0.75 ml of this solution is injected into 10 ml of culture medium.
(§7) 3 tubes were produced for each test and control. The growth of the strains was monitored indirectly by the production of sulphide.
(§8) A subculture was carried out starting from the preceding experiment on naphthalene, DBT solubilized as previously in HMN, and on HMN alone, for the two strains studied.

[2] = system: Archaeoglobus fulgidus (collection strain); assay: Quantitative study of the degradation of hydrocarbons (DBT, HMN), collection strain; type: cell-based
Protocol: Experiments were carried out in order to establish the stoichiometric equation of the degradation of hydrocarbons in the case of the collection strain only. Thus, the hydrocarbon concentrations were assayed at the initial and final time, like the thiosulphate concentrations. Moreover, the increase in the biomass was followed by the increase in the microbial population based on the most probable number method (MPN).
In order to be able to quantify the hydrocarbons with precision, the thick rubber stoppers were covered with a Teflon film, an inert substance which avoids any loss of the hydrocarbon by absorption or adsorption.
The hydrocarbons were added at a rate of: • for the DBT: 10 mg of DBT dissolved in 0.5 ml of HMN, 0.5 ml of this solution is added to the tests; • for the HMN: 6 μl of HMN/10 ml of culture medium.
The tests prepared are inoculated with the preceding subculture.

[3] = system: strain L-3; assay: Screening for hydrocarbon degradation, strain L-3 (sulphide production, Cord-Ruwish); type: cell-based, Archaeoglobus fulgidus CNCM I-3465 (strain L-3); conditions: for Count / OD 580 / H2S: choice of the inoculum for the subculture; for H2S: tubes of the screening; for ΔS tf-ti: final minus initial sulphide
Protocol: as §1, §2, §3, §4, §5, §6, §7, §8

[4] = system: strain L-3; assay: Subculture on hydrocarbons, strain L-3 (sulphide production); type: cell-based, Archaeoglobus fulgidus CNCM I-3465 (strain L-3)
Protocol: as §1, §2, §8
(§9) For this subculture, apart from the tests containing the hydrocarbon (DBT, naphthalene (Naph), […]), and seeded with the previously chosen inoculum, abiotic controls (negative controls) containing the substrate (hydrocarbon) but not inoculated were produced for the purpose of quantifying the sulphide production which could be due to chemical reactions between the different constituents of the medium. In these controls there was no development in the concentration of sulphide over a period of 20 days (Table 4).

[5] = system: A. fulgidus; assay: Subculture on hydrocarbons, A. fulgidus (sulphide production); type: cell-based, Archaeoglobus fulgidus; conditions: for ΔS tf-ti: final minus initial sulphide
Protocol: as §1, §2, §8, §9

[6] = system: A. fulgidus; assay: Complementary experiment: sulphate as electron acceptor instead of thiosulphate; type: cell-based, Archaeoglobus fulgidus
Protocol: A first experiment was carried out with A. fulgidus for the purpose of studying the effect of sulphate as an electron acceptor instead of the thiosulphate used previously. […] This explains that at the bottom of the oceans where sulphate is abundant relative to thiosulphate which is in the minority, the phenomenon of DBT or HMN degradation cannot occur spontaneously.

[7] = system: Archaeoglobus fulgidus DSM 4304; assay: Monitoring of thiosulphate during the degradation of fatty acids by A. fulgidus; type: cell-based; conditions: end of May 2005; E1/E2 replicates; listed as C5 fatty acid
Protocol: (§10) The thiosulphate and sulphate assays are carried out by ion chromatography.
(§11) The analyses are carried out with a chromatograph (Compact IC 761, Metrohm) equipped with: • A […] ion-exchange column (Metrosep A SUPP 1-250 (6.1005.300)), size 4.6*250 mm; • The eluent used is Na2CO3 at a concentration of 3 mmol/l, at a flow rate of 1 to 2.5 ml/min; ((→the flow rate varies during the analysis)) • A sample processor (Metrohm 838); • A conductimeter; • A computer where the results are recorded, integrated and analyzed by software (761 Compact IC, Metrohm). III.3.2. Operating Method
(§12) The operating conditions are such that the temperature is 20° C. and the pressure is 5 MPa. The samples to be analyzed are filtered. The injection volume is 20 μl. The detection is of conductimetric electrochemical type with chemical suppression allowing elution gradients.
(§13) Monitoring of thiosulphate during the degradation of fatty acids by A. fulgidus and by L-3

[8] = system: strain L-3; assay: Monitoring of thiosulphate during the degradation of fatty acids by L-3; type: cell-based, Archaeoglobus fulgidus CNCM I-3465 (strain L-3); conditions: time 0 (Feb. 5, 2005); E1/E2 replicates
Protocol: as §10, §11, §12, §13

[9] = system: strain L-3; assay: Degradation of different substrates by the strain L-3 as a function of the electron acceptor; type: cell-based, Archaeoglobus fulgidus CNCM I-3465 (strain L-3); set-up: total H2S: unit not given here
Protocol: as §1, §2
(§14) The analysis and quantification of the metabolites are carried out by HPLC by measuring the disappearance of the substrate and the appearance of different metabolism products.
(§15) The study of the degradation abilities of different substrates of the strain L-3 was based on a comparison with the collection strain, Archaeoglobus fulgidus (DSM 4304). The degradation of the substrates, by the two strains was monitored by a measurement of the cell biomass at 580 nm, a sulphide assay produced according to the Cord-Ruwish method, a study of the degradation metabolites by HPLC, completed by a CO2 assay with a GPC-Katharometer.
(§16) Two series of tests were prepared, one with thiosulphate, the other with sulphate as an electron acceptor.

[10] = system: Archaeoglobus fulgidus (DSM 4304); assay: Degradation of different substrates by A. fulgidus as a function of the electron acceptor; type: cell-based; conditions: for total H2S: unit from b116
Protocol: as §1, §2, §14, §15, §16

[11] = system: strain L-3; assay: Sources of carbon and energy used by the strain L-3; type: cell-based, Archaeoglobus fulgidus CNCM I-3465 (strain L-3); conditions: thiosulphate as electron acceptor; for H2S (480 nm): unit from b126
Protocol: as §1, §2, §14
The study of the growth of the strain L-3 in the presence of different sources of carbon and energy was carried out with thiosulphate as an electron acceptor. The monitoring was carried out by estimation of the cell biomass (OD 580 nm), by assay of the sulphide production (Cord-Ruwish). The results were confirmed by HPLC analyses, and completed in certain cases by a CO2 assay.

[12] = system: Archaeoglobus fulgidus; assay: Degradation kinetics of lactate; type: cell-based
Protocol: as §14
This can be explained by the fact that the strain L-3 can have a substrate degradation metabolism different from that of Archaeoglobus fulgidus.

[13] = choice of the inoculum for the subculture
[14] = thiosulphate as electron acceptor
[15] = thiosulphate or sulphate as electron acceptor

Compound	sulphide production (OD 480) 10 d [1]	sulphide production (OD 480) 45 d [1]	sulphide production (OD 480) 60 d [1]	sulphide assay at the end of 75 days [2]	sulphide production (OD 480) 45 d [3]	sulphide production (OD 480) 70 d [3]	Count [3]	OD 580 [3]	H2S [3]	ΔS tf-ti [3]	sulphide production (OD 480) 0 d [4]	sulphide production (OD 480) 8 d [4]	sulphide production (OD 480) 22 d [4]	sulphide production (OD 480) 45 d [4]	sulphide production (OD 480) 8 d [5]	sulphide production (OD 480) 22 d [5]	ΔS tf-ti [5]	microbial growth with sulphate as electron acceptor [6]	sulphide production (OD 480) 70 d [1]	sulphide production (OD 480) 45 d [5]	other results
c1ccc2c(c1)sc1ccccc12 [DBT, dibenzothiophene]	0.6 mM and 0.8 mM and 0.7 mM	1.1 mM and 1.3 mM	1.1 mM and 1.7 mM and 1.5 mM	approximately 9.5 mM	1 mM and 1.2 mM and 1.4 mM	0.9 mM and 1.2 mM and 1.4 mM	8.17*10^7 Cells/ml and 6.55*10^7 Cells/ml	0.2284 and 0.3479	0.9 mM and 1.2 mM	0.8 mM and 1.2 mM and 1.5 mM	0.3 mM and 0.2 mM	0.6 mM and 0.4 mM	1.1 mM and 1 mM and 0.8 mM	2 mM and 1.1 mM and 1 mM	1.3 mM and 1.1 mM and 1.2 mM	2.1 mM and 1.9 mM	3 mM and 3.1 mM and 3.2 mM	no microbial growth			sulphide production (OD 480) 0 d ([1]; 0 d, aromatics solubilized in HMN): 0.4 mM and 0.3 mM and 0.5 mM; sulphide value in the hydrocarbon screening stage (ΔS45d, Table 1) ([1]; 45 days): ≤ 1 mM; Count [1, 13]: 9.4*10^7 Cells/ml and 8.33*10^7 Cells/ml and 7.22*10^7 Cells/ml; OD 580 [1, 13]: 0.9801 and 1.424 and 0.9189; sulphide production (OD 480) 60 d ([3]; 60 d): 0.6 mM and 0.7 mM and 1.1 mM; sulphide production (OD 480) 0 d ([5]; 0 d): 0.2 mM and 0.1 mM
CC(CC(C)(C)C)CC(C)(C)CC(C)(C)C (centres unmarked) [HMN, 2,2,4,4,6,8,8-heptamethylnonane]	0.8 mM and 1 mM	0.8 mM and 1.1 mM	0.9 mM and 0.7 mM and 1.3 mM	approximately 6 mM	0.7 mM and 0.9 mM	1 mM and 1.4 mM and 1.9 mM	6.08*10^7 Cells/ml	0.5921 and 0.6696	1 mM and 1.4 mM and 2 mM	1 mM and 1.4 mM and 2 mM	0.3 mM and 0.2 mM	0.6 mM and 0.5 mM and 0.4 mM	1 mM and 0.9 mM and 0.6 mM		0.6 mM and 1 mM and 0.7 mM		1.4 mM and 2.5 mM and 1.5 mM	no microbial growth	1.3 mM and 0.9 mM and 1.2 mM	2 mM and 3.5 mM and 2.2 mM	H2S ([1]; choice of the inoculum for the subculture, tubes of the screening): 1.3 mM and 0.9 mM and 1.2 mM; Sulphide (mM)(480 nM) ([2]; after 7 weeks of incubation, with yeast extract (EL)): 1.3 mM; sulphide production during the subculture, on average [5]: 1.8 mM
CCCCC(=O)O [valerate]																					thiosulphate, end of May 2005 [7]: 11.86 mM and 9.39 mM; thiosulphate, time 0 [8]: 13.95* mM
lactate		3.5 mM and 3.8 mM and 4.3 mM	3.3 mM and 3 mM and 3.1 mM		1.8 mM and 3.2 mM and 1.7 mM						0.2 mM and 0.1 mM	4.8 mM and 6.1 mM	4.7 mM and 8 mM	3.9 mM	0.3 mM	0.3 mM			3.9 mM and 3.7 mM	0.2 mM and 0.3 mM	ΔS tf-ti ([1]; final minus initial sulphide): 3.6 mM and 3.2 mM; final OD 580 ([9]; sulphate as electron acceptor): 0.3076 and 0.2071; initial OD 580 ([9]; sulphate as electron acceptor): 0.1024 and 0.0888; total H2S ([9]; sulphate as electron acceptor): 2.8 and 1.4; final OD 580 [9, 14]: 0.1027 and 0.1161; initial OD 580 [9, 14]: 0.073 and 0.1029; total H2S [9, 14]: 9.3 and 7.2; ability of the strain L-3 to degrade the substrate [9, 15]: capable of degrading; initial OD 580 ([10]; sulphate as electron acceptor): 0.1657 and 0.1456; total H2S ([10]; sulphate as electron acceptor): 7.1 mM and 12.2 mM; final OD 580 [10, 14]: 0.3681 and 0.314; initial OD 580 [10, 14]: 0.1333 and 0.1419; total H2S [10, 14]: 8 mM and 9.3 mM; ability of Archaeoglobus fulgidus to oxidize the substrate [10, 15]: capable of oxidizing; OD 580 nm Final [11]: 0.1249 and 0.1173; OD 580 nm Initial [11]: 0.0742 and 0.0841; H2S (480 nm) [11]: 5.7 mM and 2.9 mM; H2S (480 nm) ([11]; listed as lactate): 5.7 mM; lactate degradation at the end of three months [12]: all of the lactate is degraded
